Data published in the NIST ThermoML archive (doi:10.1021/je700363m).
± gives the expanded uncertainty stated by the source.

Assay: wn = mass fraction of the nth substance listed
Settings: 101 kPa, Liquid; for viscosity: Capillary tube (Ostwald / Ubbelohde) method

Row | SMILES | viscosity (298.15 K, w1 = 0.0931) [mPa·s] | mass density (298.15 K, w1 = 0.049) [kg/m3] | mass density (298.15 K, w1 = 0.0538) [kg/m3] | mass density (298.15 K, w1 = 0.0653) [kg/m3] | viscosity (313.15 K, w1 = 0.0931) [mPa·s] | viscosity (313.15 K, w1 = 0.0478) [mPa·s] | viscosity (313.15 K, w1 = 0.0906) [mPa·s] | mass density (313.15 K, w1 = 0.02) [kg/m3] | mass density (313.15 K, w1 = 0.05) [kg/m3] | viscosity (319.15 K, w1 = 0.155) [mPa·s] | mass density (319.15 K, w1 = 0.155) [kg/m3] | viscosity (323.25 K, w1 = 0.172) [mPa·s] | mass density (323.25 K, w1 = 0.172) [kg/m3] | mass density (333.15 K, w1 = 0.02) [kg/m3] | mass density (333.15 K, w1 = 0.05) [kg/m3] | mass density (333.32 K, w1 = 0.214) [kg/m3] | viscosity (333.35 K, w1 = 0.214) [mPa·s]
1 | [K+].[K+].[O]=[Cr](=[O])([O-])[O-] [potassium chromate(VI)] + O | 0.9285 ± 0.0077 | 1034.6 ± 1 | 1038.3 ± 1 | 1046.8 ± 1 | 0.7309 ± 0.0062 | – | – | – | – | – | – | – | – | – | – | – | –
2 | [K+].[K+].[O]=[Cr](=[O])([O-])[O][Cr](=[O])(=[O])[O-] [potassium dichromate] + O | – | – | – | – | – | 0.6465 ± 0.0055 | 0.6805 ± 0.0058 | 1006.5 ± 1.1 | 1026.8 ± 1.2 | 0.6914 ± 0.0059 | 1166.5 ± 1.4 | 0.6658 ± 0.0057 | 1184.2 ± 1.5 | 997 ± 1.3 | 1016.4 ± 1.3 | 1232.1 ± 1.6 | 0.6307 ± 0.0054
